Laboratory results from patent US4618604A, “Composition and method for improving feed utilization or tissue production in animals” (Monsanto Company, priority 1984, dated 1986).
Counter-ions that a name gives are not always drawn.

Legend:
[1] = Chick growth feeding trial (weight gain and feed conversion, treated vs untreated chicks); type: in vivo
[2] = Pig growth feeding trials I-III (weight gain and feed efficiency, treated vs untreated pigs); type: in vivo; conditions: Example 2, growing period about 18-90 kg
Description: The following examples are included to illustrate the improved feed utilization and/or tissue producing effect of the substituted phenylphosphinic acid derivatives of the present invention. It should be understood that examples are included to illustrate the practice of the present invention and are not intended to limit the scope of the invention. It should be further understood that the dosage levels recited in the following examples are only illustrative and are not meant to limit the scope of the invention. Unless otherwise noted, all percentages are by weight. Comparisons are between the numerical average for treated animals and the numerical average for untreated animals.
A swine diet for growing pigs prepared from the following types and amounts of ingredients:
Three trials were conducted wherein pigs were administered 2-methoxyphenylmethylphosphinic acid at dosage levels of 2.0, 10.0, 20.0 (TRIAL I); 0.5, 2.0, 8.0 (TRIAL II); and 0.5, 2.0, 8.0 (TRIAL III) milligrams per kilogram of finished feed throughout a growing period of about 18-90 kg.

[3] = Example 10, 1, 20, 60 or 100 mg per kg feed
[4] = trials I and II, 2.0 mg/kg finished feed
[5] = Examples 4 and 6, 1 mg and 10 mg per kg feed

Structure (SMILES): CP(=O)(O)c1ccccc1N [2-aminophenylmethylphosphinic acid hydrochloride salt]
- average daily weight gain ([1]; Example 9, 2.0 mg per kg feed): higher average daily weight gain than untreated chicks

Structure (SMILES): CP(=O)(O)c1ccccc1C(=O)O [2-carboxylphenylmethylphosphinic acid, 2-carboxyphenylmethylphosphinic acid]
- average daily weight gain ([1]; Example 7, 11 mg per kg feed): higher average daily weight gain than untreated chicks

Structure (SMILES): CP(=O)(O)c1ccccc1Cl [2-chlorophenylmethylphosphinic acid]
- daily weight gain ([1]; Example 5, 0.5 mg per kg feed): higher daily weight gain than untreated chicks

Structure (SMILES): CCP(=O)(O)c1ccccc1OC [2-methoxyphenylethylphosphinic acid]
- average daily weight gain ([1]; Example 8, 10 mg per kg feed): higher average daily weight gain than untreated chicks

Structure (SMILES): COc1ccccc1P(C)(=O)O [2-methoxyphenylmethylphosphinic acid]
- average daily gain [1, 3]: higher average daily gain
- conversion of feed to weight gain [1, 3]: converted feed to weight gain more efficiently than untreated chicks
- weight gain ([2]; 10.0 and 20.0 mg/kg finished feed, vs untreated): gained weight faster than untreated pigs
- daily weight gain [2, 4]: faster daily weight gain
- feed efficiency [2, 4]: improved feed efficiency

Structure (SMILES): Cc1ccccc1P(C)(=O)O [2-methylphenylmethylphosphinic acid]
- conversion of feed to weight gain ([1]; Example 3, 0.5 to 4.0 mg/kg feed, 45-48 days): converted feed to weight gain more efficiently than untreated chicks

Structure (SMILES): CP(=O)(O)c1ccccc1[N+](=O)[O-] [2-nitrophenylmethylphosphinic acid]
- average daily weight gain [1, 5]: higher average daily weight gain than untreated chicks

Structure (SMILES): CP(=O)(O)c1ccccc1O [Ammonium 2-hydroxyphenylmethylphosphinate]
- average daily weight gain [1, 5]: higher average daily weight gain than untreated chicks
